Where a SMILES comes first, the peptide text is derived from it. [ ]: non-standard residue; d: D form. Phe(3-Br) = N[C@@H](Cc1cccc(Br)c1)C(=O)O; Nle = CCCC[C@H](N)C(=O)O
What was measured:
[1] = test system: neocortex of memory-deficient mice; assay: Long-term potentiation, in vitro field potential recording of brain slices (MED64), memory-deficient mice; format: cell-based; details: compound injected for five minutes
Description: An in vitro electrophysiological electrical signal recording method was used to investigate whether compound HT-267, compound HT-177, and compound HT-178 can induce long-term potentiation in the neocortex of memory-deficient mice. The MED64 low-noise multi-electrode recording system was used to record the electrical signals of brain slices cultured in vitro.

[2] = test system: memory-deficient mice; assay: New object recognition experiment, memory-deficient mice; format: in vivo; details: intraperitoneal injection
Description: The new object recognition experiment is a highly validated method of cognitive memory, designed by Ennaceur & Delacour (1988) based on the exploration characteristics of rodents to new environments, and this model evaluates the memory function of the tested animal based on the length of time that the animal spends in exploring familiar objects it has seen in the environment and new objects it has not seen. […] The experiment is usually divided into three stages: 1. Adaptation period: let the animal be familiar with the experimental environment, and no objects are placed in the experimental box; 2. Familiarization period: place two identical objects in the experimental box and let the mice explore freely for 10 minutes; 3. Test period: put a new object in the experimental box to replace one of the old objects, and the positions of the objects remain unchanged. The exploration of mice was recorded with video, and the time spent in exploring the old and new objects by mice was analyzed, and the proportion of time spent in exploring the new object by mice in the test period accounting for the total time for exploring the objects was calculated, that is, the recognition index of new objects.
Adult memory-deficient mice were housed under standard conditions with free access to food and water. Our new object recognition experiment for testing memory-deficient mice mainly included the adaptation period, the familiarization period, and the test period. The experimental method was the same as Example 12.
We randomized memory-deficient mice into four groups, with one group given intraperitoneal injection of the solvent of drug as the control group, administration group 1 given intraperitoneal injection of the compound HT-267 solution, administration group 2 given intraperitoneal injection of the compound HT-177 solution, and administration group 3 given intraperitoneal injection of the compound HT-178 solution. After the adaptation and familiarization period training, we tested the recognition memory of several groups of mice in the test period experiment.

[3] = test system: memory-deficient mice; assay: Morris water maze, memory-deficient mice; format: in vivo; details: intraperitoneal injection, CCK4 four times a day 10 days, HT compounds once a day 8 days
Description: Adult memory-deficient mice were housed under standard conditions with free access to food and water. Our Morris water maze experiment for testing memory-deficient mice mainly included two parts: positioning navigation experiment and space exploration experiment. The experimental methods were the same as Example 5. We randomized memory-deficient mice into six groups, with the first group given intraperitoneal injection of the CCK4 solution, the second group given intraperitoneal injection of the solvent of CCK4 solution as a control, the third group given intraperitoneal injection of the compound HT-267 solution, the fourth group given intraperitoneal injection of the compound HT-177 solution, the fifth group given intraperitoneal injection of the compound HT-178 solution, and the sixth group given intraperitoneal injection of the solvent of compound solution as a control. In the positioning navigation experiment, the treatment and training methods of the first and the second groups were the same as those of the first and second groups in Example 5, that is, four times of treatment a day, four times of training a day, for a total of 10 days of training. The treatment and training methods of the third to sixth groups were the same as the third and fourth groups in Example 5, that is, one treatment a day, four times of training a day, for a total of 8 days of training. In the space exploration experiment, the spatial memory ability of mice was tested in the same way for each group.

[4] = molecular target: T1, CCK-B receptors (CHO-CCK) (Homo sapiens, UniProt P32239); assay: Calcium flux (Fluo-8) agonist test on CHO-CCK model cells; format: cell-based
T1 construct: expressed in transfected cells; host or cells: CHO (CHO-CCK model cells)
T1 sequence (P32239 1-447): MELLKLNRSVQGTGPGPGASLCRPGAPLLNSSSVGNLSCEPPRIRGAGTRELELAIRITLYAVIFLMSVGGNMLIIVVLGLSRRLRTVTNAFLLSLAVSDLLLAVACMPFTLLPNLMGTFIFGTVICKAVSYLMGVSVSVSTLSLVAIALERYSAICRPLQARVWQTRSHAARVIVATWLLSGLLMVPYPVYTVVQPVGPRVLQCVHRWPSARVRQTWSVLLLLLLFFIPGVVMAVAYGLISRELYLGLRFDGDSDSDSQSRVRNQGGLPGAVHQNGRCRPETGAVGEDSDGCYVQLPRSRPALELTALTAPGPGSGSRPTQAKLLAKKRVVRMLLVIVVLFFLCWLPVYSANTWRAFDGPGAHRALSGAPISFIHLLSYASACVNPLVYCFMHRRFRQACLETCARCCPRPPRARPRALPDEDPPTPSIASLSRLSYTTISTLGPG
Method in brief: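 Agonist-mode Fluo-8 calcium flux read on CHO-CCK cells after dye loading 30 min at 37 °C plus 30 min at room temperature.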

[5] = molecular target: T1, CCK-B receptors (CHO-CCK); assay: Calcium flux (Fluo-8) antagonist test on CHO-CCK model cells in presence of CCK8; format: cell-based
[6] = Pharmacokinetics in KM mice after intravenous administration; details: male, mouse, plasma, 1 mg/kg
[7] = test system: CCK-B receptor carrying green fluorescence; details: intraperitoneal injection, visual cortex imaging
[8] = in vivo; details: male, KM, mouse, iv, 1 mg/kg, T1/2
[9] = CHO-CCK cells, compound alone, 100% = 20 nM CCK8
[10] = compound together with 10 nM CCK8

| Structure (SMILES) | basal field potential after administration (long-term potentiation) [1] | recognition index of new objects vs control [2] | proportion of exploration duration in the target quadrant vs control [3] | EC50 [4, 9] [nM] | EC50 [5, 10] [nM] | AUC(0-inf) [6] [ng·h/mL] | Cmax [6] [ng/mL] | Tmax [6] [min] | blood-brain barrier crossing / green fluorescence signal of CCK-B receptor sensor [7] | half-life [8] [min] | agonistic/antagonistic activity on CCK-B receptors (in words) ([4]; CHO-CCK cells, calcium signal) | Agonistic Activity (%) at 10 μM ([4]; compound at 10 μM, percentage of signal of 20 nM CCK8 alone) [%] | EC50 ([4]; CHO-CCK cells, Fluo-8 calcium flux, 100% control = 20 nM CCK8) [nM] | EC50 ([5]; in presence of 10 nM CCK8) [nM] |
| --- | --- | --- | --- | --- | --- | --- | --- | --- | --- | --- | --- | --- | --- | --- |
| CCCC[C@H](NC(=O)[C@@H](Cc1c[nH]c2ccccc12)NC(C)=O)C(=O)N[C@@H](CC(=O)O)C(=O)N[C@@H](Cc1cccc(Br)c1)C(N)=O [HT-178, Ac-D-Trp-Nle-Asp-Phe(3-Br)-NH2] (Ac-[dW][Nle]D[Phe(3-Br)]-NH2) | enhanced, and the enhancement lasted for more than one hour | significantly higher than that of the control group | significantly higher than that in the control group | 2.81 | 528 |  |  |  |  |  |  |  |  |  |
| CCCC[C@H](NC(=O)[C@H](Cc1c[nH]c2ccccc12)NC(C)=O)C(=O)N[C@@H](CC(=O)O)C(=O)N[C@@H](Cc1cccc(Br)c1)C(N)=O [HT-177, Ac-Trp-Nle-Asp-Phe(3-Br)-NH2] (Ac-W[Nle]D[Phe(3-Br)]-NH2) | enhanced, and the enhancement lasted for more than one hour | significantly higher than that of the control group | significantly higher than that in the control group | 0.056 | 279 | 641 | 403 | 15 | crossed the blood-brain barrier and was bound to the CCK-B receptor | 43.3 | more active |  |  |  |
| COC(=O)C[C@H](NC(=O)[C@H](CCSC)NC(=O)[C@H](N)Cc1c[nH]c2ccccc12)C(=O)N[C@@H](Cc1ccc(F)cc1)C(N)=O [HT-87, D-Trp-Met-Asp(Ome)-Phe(4-F)-NH2] |  |  |  |  | 9980 |  |  |  |  |  |  | 28.73 |  |  |
| CCCC[C@H](NC(=O)[C@@H](Cc1c[nH]c2ccccc12)N(C)C(=O)CN(C)C(=O)OCC1c2ccccc2-c2ccccc21)C(=O)N[C@@H](CC(=O)O)C(=O)N[C@@H](Cc1cccc(Br)c1)C(N)=O [HT-252, Fmoc-(N-Me-Gly)-(N-Me-Trp)-Nle-Asp-Phe(3-Br)-NH2] |  |  |  |  |  |  |  |  |  |  |  |  | 255 | 1030 |
